Patent US20260109708A1, “COMPOUNDS AND COMPOSITIONS USEFUL AS DEGRADERS OF MK2 KINASE” (Celgene Corporation, priority 2023, published 2026)

Biological target: T1, p38a activated, mitogen-activated protein kinase-activated protein kinase 2 (MAPKAP-K2 or MK2) enzyme (Homo sapiens, UniProt P49137)
T1 construct: purchased Invitrogen PV3317
Assay: MK2 OMNIA biochemical assay (AssayQuant continuous-read kinase assay)
Conditions: [MK-2]=0.05 nM, [ATP]=100 μM, [AQT0425]=10 μM
Text: Example 56.2. Mitogen-Activated Protein Kinase-Activated Protein Kinase 2 AssayQuant Technologies® Assay for Compound Potency Assessment (MK2 OMNIA Biochemical Assay)
The protocol below describes a continuous-read kinase assay optimized to measure potency of compounds against p38a activated, mitogen-activated protein kinase-activated protein kinase 2 (MAPKAP-K2 or MK2) enzyme.
A 1.25× stock solution of MK2 (PV3317, from Invitrogen) and a 5× stock solution of ATP and Sox conjugated peptide substrate, AQT0425 (CSKS-AQT0425B, from AssayQuant Technologies), were prepared in 1× kinase reaction buffer consisting of 50 mM HEPES, pH 7.5, 0.01% Brij-35, 0.55 mM EGTA, 10 mM MgCl2 and 1 mM DTT.
10 μL of the ATP and substrate solution mix was added to a Coming (3574) 384-well, white, non-binding surface microtiter plate containing 0.5 μL of serially diluted test compounds prepared in DMSO. The reactions were started with the addition of 40 μL of the enzyme solution and monitored every 71 seconds for 240 min at kex 360/λem 485 in a Synergy H4 plate reader from BioTek at room temperature.
The initial linear portions of the net progress curves were fit according to a linear equation to yield the slope and percentage of inhibition (% inhibition) at each compound concentration. The net progress curves obtained during the entirety of reactions were also fit according to an ascending single-exponential equation (Eq. 1) to yield Vobs values at each compound concentration. Plots of % Inhibition versus degrader concentrations were fit according to a dose-response equation (Eq. 2) to generate IC50 and Hill slope values while plots of Vobs versus degrader concentration were fit according to Equation 3 (Eq. 3) to generate apparent Kinact values using the GraphPad PRISM software.
where F is the fluorescence intensity from the plate reader, V0 is a constant reflecting the relationship between the instrument readout and product concentration, t is time, e is Euler's number, and Vobs is the observed inactivation rate constant.
where % Inhibition is percentage of inhibition, IC50 is half maximal inhibitory concentration, [I] is the degraders concentration, and n is the Hill slope.
where kobs is the observed inactivation rate constant, Kinact is the apparent inactivation rate constant, K1 is the apparent inhibition constant, and [I] is the degrader concentration.

T1 sequence (P49137 whole entry): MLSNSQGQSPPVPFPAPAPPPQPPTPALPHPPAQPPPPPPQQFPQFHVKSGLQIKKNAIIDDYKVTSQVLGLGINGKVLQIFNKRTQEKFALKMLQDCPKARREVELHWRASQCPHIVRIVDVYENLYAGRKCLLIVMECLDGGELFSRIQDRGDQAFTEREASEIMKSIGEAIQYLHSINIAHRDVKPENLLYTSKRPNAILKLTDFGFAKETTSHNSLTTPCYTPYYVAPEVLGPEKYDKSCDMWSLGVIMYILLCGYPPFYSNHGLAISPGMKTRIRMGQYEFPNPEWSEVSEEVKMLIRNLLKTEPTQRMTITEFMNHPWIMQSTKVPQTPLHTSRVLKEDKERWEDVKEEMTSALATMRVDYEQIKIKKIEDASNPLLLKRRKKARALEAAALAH

Row | IC50 [µM] | SMILES
1 | < 0.15 | C[C@@H]1CNc2c(sc3ccc4nc(-c5ccc(C(=O)NC6CCN(c7ccc8c(C9CCC(=O)NC9=O)nn(C)c8c7)CC6)cc5F)ccc4c23)C(=O)N1 (stereo partly drawn) [Ex 1, N-(1-(3-(2,6-dioxopiperidin-3-yl)-1-methyl-1H-indazol-6-yl)piperidin-4-yl)-3-fluoro-4-((R)-10-methyl-8-oxo-9,10,11,12-tetrahydro-8H-[1,4]diazepino[5′,6′:4,5]thieno[3,2-f]quinolin-3-yl)benzamide]
2 | < 0.15 | C[C@@H]1CNc2c(sc3ccc4nc(-c5ccc(C(=O)NCCN6CCN(c7ccc8c(C9CCC(=O)NC9=O)nn(C)c8c7)CC6)cc5F)ccc4c23)C(=O)N1 (stereo partly drawn) [Ex 2, N-(2-(4-(3-(2,6-dioxopiperidin-3-yl)-1-methyl-1H-indazol-6-yl)piperazin-1-yl)ethyl)-3-fluoro-4-((R)-10-methyl-8-oxo-9,10,11,12-tetrahydro-8H-[1,4]diazepino[5′,6′:4,5]thieno[3,2-f]quinolin-3-yl)benzamide]
3 | < 0.15 | C[C@@H]1CNc2c(sc3ccc4nc(-c5ccc(C(=O)N[C@H]6C[C@H](CN7CCN(c8ccc9c(C%10CCC(=O)NC%10=O)nn(C)c9c8)CC7)C6)cc5F)ccc4c23)C(=O)N1 (stereo partly drawn) [Ex 3, N-((trans)-3-((4-(3-(2,6-Dioxopiperidin-3-yl)-1-methyl-1H-indazol-6-yl)piperazin-1-yl)methyl)cyclobutyl)-3-fluoro-4-((R)-10-methyl-8-oxo-9,10,11,12-tetrahydro-8H-[1,4]diazepino[5′,6′:4,5]thieno[3,2-f]quinolin-3-yl)benzamide]
4 | < 0.15 | C[C@@H]1CNc2c(sc3ccc4nc(-c5ccc(C(=O)N[C@H]6C[C@H](CCN7CCN(c8ccc9c(C%10CCC(=O)NC%10=O)nn(C)c9c8)CC7)C6)cc5F)ccc4c23)C(=O)N1 (stereo partly drawn) [Ex 4, N-(trans-3-(2-(4-(3-(2,6-Dioxopiperidin-3-yl)-1-methyl-1H-indazol-6-yl)piperazin-1-yl)ethyl)cyclobutyl)-3-fluoro-4-((R)-10-methyl-8-oxo-9,10,11,12-tetrahydro-8H-[1,4]diazepino[5′,6′:4,5]thieno[3,2-f]quinolin-3-yl)benzamide]
5 | < 0.15 | C[C@@H]1CNc2c(sc3ccc4nc(-c5ccc(C(=O)N[C@H]6CC[C@H](CN7CCN(c8ccc9c(C%10CCC(=O)NC%10=O)nn(C)c9c8)CC7)CC6)cc5F)ccc4c23)C(=O)N1 (stereo partly drawn) [Ex 5, N-(trans-4-((4-(3-(2,6-dioxopiperidin-3-yl)-1-methyl-1H-indazol-6-yl)piperazin-1-yl)methyl)cyclohexyl)-3-fluoro-4-((R)-10-methyl-8-oxo-9,10,11,12-tetrahydro-8H-[1,4]diazepino[5′,6′:4,5]thieno[3,2-f]quinolin-3-yl)benzamide]
6 | < 0.15 | C[C@@H]1CNc2c(sc3ccc4nc(-c5ccc(C(=O)N[C@H]6CC[C@H](CCN7CCN(c8ccc9c(C%10CCC(=O)NC%10=O)nn(C)c9c8)CC7)CC6)cc5F)ccc4c23)C(=O)N1 (stereo partly drawn) [Ex 6, N-(trans-4-(2-(4-(3-(2,6-Dioxopiperidin-3-yl)-1-methyl-1H-indazol-6-yl)piperazin-1-yl)ethyl)cyclohexyl)-3-fluoro-4-((R)-10-methyl-8-oxo-9,10,11,12-tetrahydro-8H-[1,4]diazepino[5′,6′:4,5]thieno[3,2-f]quinolin-3-yl)benzamide]
7 | < 0.15 | C[C@@H]1CNc2c(sc3ccc4nc(-c5ccc(C(=O)NC6CCN(c7ccc(C8CCC(=O)NC8=O)cc7)CC6)cc5F)ccc4c23)C(=O)N1 (stereo partly drawn) [Ex 7, N-(1-(4-(2,6-Dioxopiperidin-3-yl)phenyl)piperidin-4-yl)-3-fluoro-4-((R)-10-methyl-8-oxo-9,10,11,12-tetrahydro-8H-[1,4]diazepino[5′,6′:4,5]thieno[3,2-f]quinolin-3-yl)benzamide]
8 | < 0.15 | C[C@@H]1CNc2c(sc3ccc4nc(-c5ccc(C(=O)NCCN6CCN(c7ccc(C8CCC(=O)NC8=O)cc7)CC6)cc5F)ccc4c23)C(=O)N1 (stereo partly drawn) [Ex 8, N-(2-(4-(4-(2,6-Dioxopiperidin-3-yl)phenyl)piperazin-1-yl)ethyl)-3-fluoro-4-((R)-10-methyl-8-oxo-9,10,11,12-tetrahydro-8H-[1,4]diazepino[5′,6′:4,5]thieno[3,2-f]quinolin-3-yl)benzamide]
9 | < 0.15 | C[C@@H]1CNc2c(sc3ccc4nc(-c5ccc(C(=O)N[C@H]6CC[C@H](CN7CCN(c8ccc(C9CCC(=O)NC9=O)cc8)CC7)CC6)cc5F)ccc4c23)C(=O)N1 (stereo partly drawn) [Ex 9, N-(trans-4-((4-(4-(2,6-Dioxopiperidin-3-yl)phenyl)piperazin-1-yl)methyl)cyclohexyl)-3-fluoro-4-((R)-10-methyl-8-oxo-9,10,11,12-tetrahydro-8H-[1,4]diazepino[5′,6′:4,5]thieno[3,2-f]quinolin-3-yl)benzamide]
10 | 0.151 to 0.5 | C[C@@H]1CNc2c(sc3ccc4nc(-c5ccc(C(=O)N[C@H]6CC[C@H](CCN7CCN(c8ccc(C9CCC(=O)NC9=O)cc8)CC7)CC6)cc5F)ccc4c23)C(=O)N1 (stereo partly drawn) [Ex 10, N-((trans)-4-(2-(4-(4-(2,6-Dioxopiperidin-3-yl)phenyl)piperazin-1-yl)ethyl)cyclohexyl)-3-fluoro-4-((R)-10-methyl-8-oxo-9,10,11,12-tetrahydro-8H-[1,4]diazepino[5′,6′:4,5]thieno[3,2-f]quinolin-3-yl)benzamide]
11 | < 0.15 | C[C@@H]1CNc2c(sc3ccc4nc(-c5cccc(N6CCN(CCN7CCN(c8ccc(C9CCC(=O)NC9=O)cc8)CC7)CC6)c5)ccc4c23)C(=O)N1 (stereo partly drawn) [Ex 11, 3-(4-(4-(2-(4-(3-((R)-10-Methyl-8-oxo-9,10,11,12-tetrahydro-8H-[1,4]diazepino[5′,6′:4,5]thieno[3,2-f]quinolin-3-yl)phenyl)piperazin-1-yl)ethyl)piperazin-1-yl)phenyl)piperidine-2,6-dione]
12 | < 0.15 | C[C@@H]1CNc2c(sc3ccc4nc(-c5cccc(N6CCN(CCN7CCN(c8ccc9c(C%10CCC(=O)NC%10=O)nn(C)c9c8)CC7)CC6)c5)ccc4c23)C(=O)N1 (stereo partly drawn) [Ex 12, 3-(1-Methyl-6-(4-(2-(4-(3-((R)-10-methyl-8-oxo-9,10,11,12-tetrahydro-8H-[1,4]diazepino[5′,6′:4,5]thieno[3,2-f]quinolin-3-yl)phenyl)piperazin-1-yl)ethyl)piperazin-1-yl)-1H-indazol-3-yl)piperidine-2,6-dione]
13 | < 0.15 | C[C@@H]1CNc2c(sc3ccc4nc(-c5cccc(N6CCN(C(=O)C(=O)N7CCN(c8ccc(C9CCC(=O)NC9=O)cc8)CC7)CC6)c5)ccc4c23)C(=O)N1 (stereo partly drawn) [Ex 13, 3-(4-(4-(2-(4-(3-((R)-10-Methyl-8-oxo-9,10,11,12-tetrahydro-8H-[1,4]diazepino[5′,6′:4,5]thieno[3,2-f]quinolin-3-yl)phenyl)piperazin-1-yl)-2-oxoacetyl)piperazin-1-yl)phenyl)piperidine-2,6-dione]
14 | < 0.15 | C[C@@H]1CNc2c(sc3ccc4nc(-c5cccc(N6CCN(C(=O)C(=O)N7CCN(c8ccc9c(C%10CCC(=O)NC%10=O)nn(C)c9c8)CC7)CC6)c5)ccc4c23)C(=O)N1 (stereo partly drawn) [Ex 14, 3-(1-Methyl-6-(4-(2-(4-(3-((R)-10-methyl-8-oxo-9,10,11,12-tetrahydro-8H-[1,4]diazepino[5′,6′:4,5]thieno[3,2-f]quinolin-3-yl)phenyl)piperazin-1-yl)-2-oxoacetyl)piperazin-1-yl)-1H-indazol-3-yl)piperidine-2,6-dione]
15 | < 0.15 | C[C@@H]1CNc2c(sc3ccc4nc(-c5cccc(N6CC7CC(C6)N7CCN6CCN(c7ccc8c(C9CCC(=O)NC9=O)nn(C)c8c7)CC6)c5)ccc4c23)C(=O)N1 (stereo partly drawn) [Ex 15, 3-(1-Methyl-6-(4-(2-(3-(3-((R)-10-methyl-8-oxo-9,10,11,12-tetrahydro-8H-[1,4]diazepino[5′,6′:4,5]thieno[3,2-f]quinolin-3-yl)phenyl)-3,6-diazabicyclo[3.1.1]heptan-6-yl)ethyl)piperazin-1-yl)-1H-indazol-3-yl)piperidine-2,6-dione]
16 | < 0.15 | C[C@@H]1COc2c(sc3ccc4nc(-c5cccc(N6CCN(CCN7CCN(c8ccc(C9CCC(=O)NC9=O)cc8)CC7)CC6)c5)ccc4c23)C(=O)N1 (stereo partly drawn) [Ex 16, 3-(4-(4-(2-(4-(3-((R)-10-Methyl-8-oxo-8,9,10,11-tetrahydro-[1,4]oxazepino[7′,6′:4,5]thieno[3,2-f]quinolin-3-yl)phenyl)piperazin-1-yl)ethyl)piperazin-1-yl)phenyl)piperidine-2,6-dione]
17 | < 0.15 | C[C@@H]1COc2c(sc3ccc4nc(-c5cccc(N6CCN(CCN7CCN(c8ccc9c(C%10CCC(=O)NC%10=O)nn(C)c9c8)CC7)CC6)c5)ccc4c23)C(=O)N1 (stereo partly drawn) [Ex 17, 3-(1-Methyl-6-(4-(2-(4-(3-((R)-10-methyl-8-oxo-8,9,10,11-tetrahydro-[1,4]oxazepino[7′,6′:4,5]thieno[3,2-f]quinolin-3-yl)phenyl)piperazin-1-yl)ethyl)piperazin-1-yl)-1H-indazol-3-yl)piperidine-2,6-dione]
